Assay [1] in a line: Inhibition of bacterial DNA polymerase beta association with DNA polymerase alpha.
A short description of assay [2]: Inhibition of bacterial DNA polymerase beta association with DNA polymerase delta.
Another assay deals with T1, Cadherin-2 (Homo sapiens, UniProt P19022).
T1 sequence (P19022 whole entry): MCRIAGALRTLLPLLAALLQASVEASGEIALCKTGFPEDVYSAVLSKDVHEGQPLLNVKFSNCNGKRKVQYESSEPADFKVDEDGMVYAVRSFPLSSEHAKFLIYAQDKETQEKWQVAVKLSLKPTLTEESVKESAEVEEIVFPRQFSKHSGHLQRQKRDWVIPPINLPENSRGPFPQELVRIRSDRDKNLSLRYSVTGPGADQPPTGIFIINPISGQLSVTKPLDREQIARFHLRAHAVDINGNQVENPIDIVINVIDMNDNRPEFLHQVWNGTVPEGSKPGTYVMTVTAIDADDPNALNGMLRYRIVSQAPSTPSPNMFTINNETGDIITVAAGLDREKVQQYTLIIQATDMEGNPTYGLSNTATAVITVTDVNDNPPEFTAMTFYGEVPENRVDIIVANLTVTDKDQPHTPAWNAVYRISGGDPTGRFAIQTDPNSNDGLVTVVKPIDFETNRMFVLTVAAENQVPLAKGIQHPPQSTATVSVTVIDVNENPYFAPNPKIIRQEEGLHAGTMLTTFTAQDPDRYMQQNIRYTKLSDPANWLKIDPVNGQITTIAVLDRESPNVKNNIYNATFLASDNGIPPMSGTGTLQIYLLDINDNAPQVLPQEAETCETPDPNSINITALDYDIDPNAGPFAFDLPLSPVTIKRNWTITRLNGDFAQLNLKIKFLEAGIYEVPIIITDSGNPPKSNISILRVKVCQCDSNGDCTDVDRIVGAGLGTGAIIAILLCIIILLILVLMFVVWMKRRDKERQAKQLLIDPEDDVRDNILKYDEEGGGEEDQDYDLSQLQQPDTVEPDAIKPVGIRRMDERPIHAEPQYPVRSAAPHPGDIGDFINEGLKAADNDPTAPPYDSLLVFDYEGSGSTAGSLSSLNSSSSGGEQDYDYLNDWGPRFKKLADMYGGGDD
Put plainly: Antagonist activity at N-cadherin. In kind it is functional.

Assay [3] deals with D(2) dopamine receptor (Homo sapiens) (UniProt P14416). Briefly: Agonist activity at human dopamine D2 receptor at 10 nM. In kind it is functional.
The nature of assay [4]: Induction of neurite outgrowth in rat CGN cells at 7.3 uM. The assay is classed as functional.

Where a SMILES comes first, the peptide text is derived from it. Bridges are numbered along the chain shown (N, C = ends).

Chain of D(2) dopamine receptor (Homo sapiens) (P14416 whole entry): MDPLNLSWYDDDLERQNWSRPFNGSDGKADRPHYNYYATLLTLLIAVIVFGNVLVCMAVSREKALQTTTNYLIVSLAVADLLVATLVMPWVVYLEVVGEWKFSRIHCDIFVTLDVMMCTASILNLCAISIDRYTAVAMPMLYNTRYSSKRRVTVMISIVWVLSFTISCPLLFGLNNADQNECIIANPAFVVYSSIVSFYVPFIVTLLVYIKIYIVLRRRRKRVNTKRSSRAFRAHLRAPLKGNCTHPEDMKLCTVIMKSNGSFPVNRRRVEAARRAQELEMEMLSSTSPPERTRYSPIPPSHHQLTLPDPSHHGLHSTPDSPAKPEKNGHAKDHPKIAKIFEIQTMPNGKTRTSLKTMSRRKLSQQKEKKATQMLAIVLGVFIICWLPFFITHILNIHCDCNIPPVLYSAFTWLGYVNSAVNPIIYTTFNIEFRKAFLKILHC

On to `CCC/C(=N\OCc1ccc(-c2ccccc2)cc1)C1C(=O)CC(C)(C2OCC(C)(C)CO2)OC1=O` (configuration not stated), for which the IC50 in assay [1] came to 270 µM; in assay [2], 90 µM. With `CCC/C(=N\OC/C(Cl)=C/c1ccc(Cl)cc1)C1C(=O)CC(C)(C)CC1=O`, the concentration for half-maximal inhibition (IC50) in assay [1] came out at 350 µM; in assay [2], 290 µM. In the case of `CC(=O)N[C@H]1CSSC[C@@H](C(N)=O)NC(=O)[C@H](CC(=O)O)NC(=O)[C@H](C(C)C)NC(=O)[C@H](C)NC(=O)[C@H](Cc2cnc[nH]2)NC1=O` (Ac-CHAVDC-NH2; disulfide 1-6), on Cadherin-2, the half-inhibitory concentration (IC50) worked out at 5 µM. The compound `N[C@@H](Cc1ccccc1)C(=O)NC1C(=O)N(CC(=O)O)C[C@H]1CC(=O)O` (some centres not stated) gave an Activity in assay [3] of 146%.

`CC[C@H](C)[C@@H]1NC(=O)[C@H](CC(=O)O)NC(=O)[C@H](C(C)C)NC(=O)[C@H](C)NC(=O)[C@H](Cc2cnc[nH]2)NC(=O)CNC(=O)[C@H](CC(N)=O)NC(=O)[C@H]([C@@H](C)CC)NC(=O)[C@H](CC(=O)O)NC(=O)[C@H](C(C)C)NC(=O)[C@H](C)NC(=O)[C@H](Cc2cnc[nH]2)NC(=O)[C@@H](NC(C)=O)CSSC[C@@H](C(N)=O)NC1=O` (Ac-CHAVDINGHAVDIC-NH2; disulfide 1-14) gave an Activity in assay [4] of 70%.

For the origin of these results see ChEMBL document CHEMBL1687877, “Tripeptide motifs in biology: targets for peptidomimetic design” (J Med Chem, 2011).
